Experiments:
COX-1 = target: T1, COX-1 (Ovis aries, UniProt P05979); assay: COX-1 enzyme assay, PGE2 by LC-MS-MS, single point; format: biochemical; details: read-out: CX1 ^f
T1 sequence (P05979 25-600): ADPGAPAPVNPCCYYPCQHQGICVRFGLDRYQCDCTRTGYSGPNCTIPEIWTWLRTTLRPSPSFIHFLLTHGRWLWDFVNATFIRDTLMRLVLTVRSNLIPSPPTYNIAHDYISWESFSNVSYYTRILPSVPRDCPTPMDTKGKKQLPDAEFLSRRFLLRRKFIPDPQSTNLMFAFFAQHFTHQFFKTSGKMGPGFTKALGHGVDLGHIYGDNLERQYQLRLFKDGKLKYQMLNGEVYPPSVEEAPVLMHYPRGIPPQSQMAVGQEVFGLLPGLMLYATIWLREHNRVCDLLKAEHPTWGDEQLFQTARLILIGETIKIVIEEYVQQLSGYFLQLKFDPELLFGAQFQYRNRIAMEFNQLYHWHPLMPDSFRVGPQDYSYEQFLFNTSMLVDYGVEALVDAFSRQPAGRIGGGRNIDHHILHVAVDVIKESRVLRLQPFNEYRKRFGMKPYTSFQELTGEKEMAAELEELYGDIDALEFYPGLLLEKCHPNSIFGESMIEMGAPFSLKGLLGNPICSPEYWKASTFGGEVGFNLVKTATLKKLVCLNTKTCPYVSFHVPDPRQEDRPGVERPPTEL

aromatase (CYP19) = target: T2, aromatase (CYP19) (Homo sapiens, UniProt P11511); assay: CYP19 enzyme, dibenzylfluorescein fluorescence assay; format: biochemical
T2 sequence (P11511 1-503): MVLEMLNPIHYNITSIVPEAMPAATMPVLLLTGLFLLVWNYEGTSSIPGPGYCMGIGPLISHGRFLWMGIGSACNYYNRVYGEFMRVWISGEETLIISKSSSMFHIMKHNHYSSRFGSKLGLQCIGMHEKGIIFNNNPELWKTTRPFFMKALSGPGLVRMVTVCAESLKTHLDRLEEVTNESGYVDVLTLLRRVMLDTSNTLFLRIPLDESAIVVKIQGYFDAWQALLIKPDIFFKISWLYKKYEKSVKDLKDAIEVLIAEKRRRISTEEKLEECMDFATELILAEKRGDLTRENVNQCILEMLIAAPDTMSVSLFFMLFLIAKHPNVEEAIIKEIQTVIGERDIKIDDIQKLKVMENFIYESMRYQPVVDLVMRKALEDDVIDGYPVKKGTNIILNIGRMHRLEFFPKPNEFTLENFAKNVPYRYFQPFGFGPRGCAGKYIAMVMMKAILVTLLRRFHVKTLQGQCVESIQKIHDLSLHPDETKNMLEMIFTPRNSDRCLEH

| inhibition at 10 µg/mL (COX-1) [%] | IC50 (aromatase (CYP19)) [µM] | Compound |
| --- | --- | --- |
| 52 |  | CC(=O)OC[C@H]1OC(O[C@@H]2[C@@H](OCCC(=O)C(C)C)[C@@H](O)[C@H](Oc3c(-c4ccc(O)cc4)oc4cc(O)cc(O)c4c3=O)O[C@H]2C)[C@H](O)[C@@H](O)[C@@H]1O (stereo partly drawn) [compound 1, kaempferol 3-O-[(6‴-O-acetyl-β-D-glucopyranosyl)-(1→4)-3″-O-(4⁗, 4⁗-dimethyl-3-oxo-butyl)-α-L-rhamnopyranoside]] |
|  | 15.5 | CC(=O)OC[C@H]1O[C@@H](O[C@@H]2[C@@H](O)[C@@H](O)[C@H](Oc3c(-c4ccc(O)cc4)oc4cc(O)cc(O)c4c3=O)O[C@H]2C)[C@H](O)[C@@H](O)[C@@H]1O [compound 4, multiflorin A] |
